Measured values published in US20090163476A1, “N-Phenyl Benzamide Derivatives as Sirtuin Modulators” (Sirtris Pharmaceuticals, Inc., priority 2005, published 2009).

Target: T1, SIRT1 (Homo sapiens, UniProt Q96EB6)
T1 sequence (Q96EB6 1-747): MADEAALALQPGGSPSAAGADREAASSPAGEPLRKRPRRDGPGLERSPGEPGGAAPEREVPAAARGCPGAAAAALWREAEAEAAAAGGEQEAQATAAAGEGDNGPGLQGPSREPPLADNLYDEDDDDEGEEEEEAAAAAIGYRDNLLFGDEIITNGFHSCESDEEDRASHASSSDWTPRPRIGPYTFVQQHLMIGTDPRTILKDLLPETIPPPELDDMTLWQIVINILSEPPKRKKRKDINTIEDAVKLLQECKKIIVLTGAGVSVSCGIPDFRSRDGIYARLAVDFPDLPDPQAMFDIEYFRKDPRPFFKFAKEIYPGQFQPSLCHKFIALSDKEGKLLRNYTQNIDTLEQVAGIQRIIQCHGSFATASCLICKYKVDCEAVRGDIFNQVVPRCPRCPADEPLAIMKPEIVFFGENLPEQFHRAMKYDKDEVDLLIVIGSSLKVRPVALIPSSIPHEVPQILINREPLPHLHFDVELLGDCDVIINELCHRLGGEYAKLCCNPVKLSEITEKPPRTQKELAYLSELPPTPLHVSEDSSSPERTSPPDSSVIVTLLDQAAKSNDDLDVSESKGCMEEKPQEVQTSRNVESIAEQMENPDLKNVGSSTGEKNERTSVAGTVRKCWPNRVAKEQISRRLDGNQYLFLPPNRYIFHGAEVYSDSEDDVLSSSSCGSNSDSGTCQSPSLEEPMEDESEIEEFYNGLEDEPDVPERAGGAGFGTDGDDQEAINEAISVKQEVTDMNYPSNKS
Test: Mass spectrometry based assay of SIRT1 activity
Assay type: biochemical
Set-up: key to FOLD ACTIVATION MS: A: Fold activation >250%; B: Fold Activation <250%; C: no fold activation
Settings: for EC50: activation of SIRT1, read-out: ED50 MS
Experimental: The mass spectrometry based assay utilizes a peptide having 20 amino acid residues as follows: […] The sequence of the peptide substrate is based on p53 with several modifications. […] Test compounds may be added to the reaction as described above. […] After the 25 minute incubation with SIRT1, 10 μL of 10% formic acid is added to stop the reaction. Reactions are sealed and frozen for later mass spec analysis. Determination of the mass of the substrate peptide allows for precise determination of the degree of acetylation (i.e. starting material) as compared to deacetylated peptide (product). […] This timepoint is the same as that used for test compounds and, within the linear range, the endpoint represents a change in velocity. For each of the above assays, SIRT1 protein was expressed and purified as follows. The SirT1 gene was cloned into a T7-promoter containing vector and transformed into BL21(DE3). The protein was expressed by induction with 1 mM IPTG as an N-terminal His-tag fusion protein at 18° C. overnight and harvested at 30,000×g. […] The protein was purified over a Ni-NTA column (Amersham) and fractions containing pure protein were pooled, concentrated and run over a sizing column (Sephadex S200 26/60 global). The peak containing soluble protein was collected and run on an Ion-exchange column (MonoQ). […] This protein was concentrated and dialyzed against dialysis buffer (20 mM Tris-HCl, 2 mM TCEP) overnight. The protein was aliquoted and frozen at −80° C. until further use.

Structure (SMILES)	EC50 [µM]	FOLD ACTIVATION MS
O=C(Nc1cccc(-c2nc3ncccc3o2)c1)c1cccc(OC(F)(F)F)c1 [Compound 50]	> 150	
COc1ccc(C(=O)Nc2cccc(-c3nc4ncccc4o3)c2)cc1 [Compound 54]	> 150	
O=C(Nc1cccc(-c2nc3ncccc3o2)c1)c1ccccc1N1CCOCC1 [Compound 109]	< 50	B (Fold Activation <250%)
COc1ccc(C(=O)Nc2cccc(-c3nc4ncccc4o3)c2)cc1Cl [Compound 110]	101 to 150	
CN(C)c1cccc(C(=O)Nc2cccc(-c3nc4cccnc4o3)c2)c1 [Compound 111]	< 50	B (Fold Activation <250%)
CN(C)c1cccc(C(=O)Nc2cccc(-c3nc4ccncc4s3)c2)c1 [Compound 113]	< 50	B (Fold Activation <250%)
COc1ccc(C(=O)Nc2cccc(-c3nc4ccncc4s3)c2)cc1OC [Compound 114]	< 50	A (Fold activation >250%)
COc1ccc(C(=O)Nc2cccc(-c3cnc4ccccc4n3)c2)cc1OC [Compound 116]	101 to 150	
COc1cccc(C(=O)Nc2cccc(-c3nc4cc(Cl)cc(Cl)c4o3)c2)c1 [Compound 121]	> 150	C
COc1ccc(C(=O)Nc2cccc(-c3nc4ccccc4s3)c2)c(OC)c1 [Compound 124]	< 50	B (Fold Activation <250%)
COc1cccc(OC)c1C(=O)Nc1cccc(-c2nc3ccccc3[nH]2)c1 [Compound 126]	< 50	B (Fold Activation <250%)
COc1ccc(C(=O)Nc2cccc(-c3cn4ccc(C)cc4n3)c2)c(OC)c1 [Compound 128]	< 50	B (Fold Activation <250%)
COc1ccc(C(=O)Nc2cccc(-c3cn4ccc(C)cc4n3)c2)cc1 [Compound 130]	< 50	B (Fold Activation <250%)
COc1ccccc1C(=O)Nc1cccc(-c2cn3ccsc3n2)c1 [Compound 132]	< 50	A (Fold activation >250%)
COc1ccc(C(=O)Nc2cc(C(=O)O)cc(-c3nc4ncccc4o3)c2)cc1OC [Compound 137]	> 150	
CN(C)c1cccc(C(=O)Nc2cc(C(=O)N3CCNCC3)cc(-c3nc4ncccc4o3)c2)c1 [Compound 138]	< 50	B (Fold Activation <250%)
COc1ccc(C(=O)Nc2cc(C(=O)N3CCNCC3)cc(-c3nc4ncccc4o3)c2)c(OC)c1 [Compound 139]	< 50	B (Fold Activation <250%)
COc1ccc(C(=O)Nc2cc(C(=O)N3CCNCC3)cc(-c3nc4ncccc4o3)c2)cc1OC [Compound 164]	< 50	B (Fold Activation <250%)

Now from value to compound:

EC50 [µM]	FOLD ACTIVATION MS	Structure (SMILES)
< 50	B (Fold Activation <250%)	COc1ccc(C(=O)Nc2cccc(-c3nc4cccnc4o3)c2)cc1OC [Compound 112]
< 50	A (Fold activation >250%)	COc1cc(C(=O)Nc2cccc(-c3nc4ccncc4s3)c2)cc(OC)c1OC [Compound 115]
< 50	A (Fold activation >250%)	COc1ccc(C(=O)Nc2cccc(-c3nc4cc(C)ccc4[nH]3)c2)cc1OC [Compound 117]
< 50	A (Fold activation >250%)	COc1cc(C(=O)Nc2cccc(-c3cn4ccsc4n3)c2)cc(OC)c1OC [Compound 118]
< 50	B (Fold Activation <250%)	COc1cccc(OC)c1C(=O)Nc1cccc(-c2nc3ccccc3o2)c1 [Compound 119]
101 to 150		COc1ccc(C(=O)Nc2cccc(-c3nc4cc(C(C)C)ccc4o3)c2)cc1OC [Compound 122]
51 to 100	B (Fold Activation <250%)	COc1cc(C(=O)Nc2cccc(-c3nc4ccccc4c(=O)o3)c2)cc(OC)c1OC [Compound 125]
< 50	A (Fold activation >250%)	COc1cc(C(=O)Nc2cccc(-c3nc4ccc(C)cc4o3)c2)cc(OC)c1OC [Compound 127]
< 50	A (Fold activation >250%)	COc1cc(C(=O)Nc2cccc(-c3cn4ccc(C)cc4n3)c2)cc(OC)c1OC [Compound 129]
< 50	A (Fold activation >250%)	COc1cc(C(=O)Nc2cccc(-c3cn4cccc(C)c4n3)c2)cc(OC)c1OC [Compound 131]
< 50	B (Fold Activation <250%)	COC(=O)c1cc(NC(=O)c2cc(OC)c(OC)c(OC)c2)cc(-c2nc3ccncc3s2)c1 [Compound 133, methyl 3-(thiazolo[5,4-c]pyridin-2-yl)-5-(3,4,5-trimethoxybenzamido)benzoate]
< 50	B (Fold Activation <250%)	COc1cc(C(=O)Nc2cc(C(=O)O)cc(-c3nc4ccncc4s3)c2)cc(OC)c1OC [Compound 134, 3-(thiazolo[5,4-c]pyridin-2-yl)-5-(3,4,5-trimethoxybenzamido)benzoic acid]
< 50	B (Fold Activation <250%)	COc1cc(C(=O)Nc2cc(CO)cc(-c3nc4ccncc4s3)c2)cc(OC)c1OC [Compound 135]
